Measured values published in ChEMBL document CHEMBL1124449, “Synthesis and evaluation of the pharmacological activity of rigid analogues of sympathomimetic catecholamines derived from bicyclo[2.2.1]heptane” (J Med Chem, 1989).
Calls of active or inactive are those of the source.

Experiments:
[1] = biological target: Beta-1 adrenergic receptor (Cavia porcellus) (UniProt B0FL73); assay: Stimulation or blockade of Beta-1 adrenergic receptor on guinea pig atria up to a dose of 10e-4 M
[2] = biological target: Beta-2 adrenergic receptor (Canis lupus familiaris) (UniProt P54833); assay: Stimulation or blockade of Beta-2 adrenergic receptor on guinea pig trachea up to a dose of 10e-4 M; settings: Cavia porcellus; target entry is the homologue from another species
Chain of Beta-2 adrenergic receptor (Canis lupus familiaris) (P54833 whole entry, looked up): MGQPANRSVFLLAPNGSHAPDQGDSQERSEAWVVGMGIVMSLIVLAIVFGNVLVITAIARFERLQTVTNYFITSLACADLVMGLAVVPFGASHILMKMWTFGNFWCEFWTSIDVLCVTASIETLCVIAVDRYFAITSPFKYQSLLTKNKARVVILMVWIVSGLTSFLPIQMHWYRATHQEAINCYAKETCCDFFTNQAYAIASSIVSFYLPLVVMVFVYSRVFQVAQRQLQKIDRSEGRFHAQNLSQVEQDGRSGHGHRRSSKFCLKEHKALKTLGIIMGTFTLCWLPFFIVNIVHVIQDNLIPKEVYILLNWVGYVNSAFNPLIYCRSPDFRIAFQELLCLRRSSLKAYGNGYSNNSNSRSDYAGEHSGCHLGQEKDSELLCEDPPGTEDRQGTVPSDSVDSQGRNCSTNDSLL

[3] = Stimulation or blockade of Alpha adrenergic receptor on rat vas deferens up to a dose of 10e-4 M; format: tissue-based

Measured: Activity

Chain of Beta-1 adrenergic receptor (Cavia porcellus) (B0FL73 1-467): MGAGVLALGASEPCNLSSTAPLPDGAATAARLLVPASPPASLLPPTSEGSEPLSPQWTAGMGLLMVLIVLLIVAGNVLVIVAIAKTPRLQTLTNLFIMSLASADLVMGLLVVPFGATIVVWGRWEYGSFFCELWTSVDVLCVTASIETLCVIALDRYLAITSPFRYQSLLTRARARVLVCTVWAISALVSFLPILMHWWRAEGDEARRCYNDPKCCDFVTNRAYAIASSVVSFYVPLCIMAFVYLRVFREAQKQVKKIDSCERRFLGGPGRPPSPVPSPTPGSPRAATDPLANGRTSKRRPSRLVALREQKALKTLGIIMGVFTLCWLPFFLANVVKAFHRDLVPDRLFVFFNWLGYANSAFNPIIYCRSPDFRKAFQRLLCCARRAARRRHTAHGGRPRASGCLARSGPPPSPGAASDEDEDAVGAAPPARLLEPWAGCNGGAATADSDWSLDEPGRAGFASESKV

CC(C)NC1C2CCC(C2)C1(O)c1ccc(O)c(O)c1 (stereo unspecified)
inactive: all assays above

NC1C2CCC(C2)C1(O)c1ccc(O)c(O)c1 (stereo unspecified)
inactive: all assays above
